The record followed here is PubChem BioAssay (NCI).

Assay in all cases: NCI anticancer screen, dose series, 48 h
For assay [1], the system named is 786-0 renal.
Assay [2] has as its system A549 NSCLC.
The test system of assay [3] is ACHN renal.
For assay [4], the system named is HCT-15 colon.
Assay [5] relates to HOP-92 NSCLC.
Assay [6] has as its system HS 578T breast.
The test system of assay [7] is KM12 colon.
Assay [8] deals with MALME-3M melanoma.
In assay [9] the test system is NCI-H23 lung.
Assay [10] has as its system NCI-H522 lung.
Assay [11] has as its system OVCAR-4 ovarian.
The subject of assay [12] is OVCAR-5 ovarian.
The test system of assay [13] is OVCAR-8 ovarian.
Assay [14] deals with RPMI-8226 leukemia.
Assay [15] concerns SF-295 CNS.
In assay [16] the test system is SK-MEL-5 melanoma.
Assay [17] has as its system SNB-75 CNS.
Assay [18] relates to T-47D breast.
The subject of assay [19] is UACC-62 melanoma.

Structures are written as SMILES.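 Step 1: Grow cells in 96-well plates. Step 2: Expose to compound for 48 hours at 5 concentrations. Step 3: Interpolate endpoints linearly; if unreached, use highest concentration. Definition used: TGI = concentration required for complete inhibition of growth.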

`COc1cc2c(c(O)c1OC)C(O)C1CCC(=O)N1C2c1cccc2ccccc12` (centres undefined): the TGI in [1], in [2], in [3], in assay [4], in assay [5] and in assay [6] was > 100 µM each time. Moreover, the TGI in [7], in [8], in assay [9], in assay [10], in assay [11] and in [12] was > 100 µM each time. Further, the TGI in [13], in assay [14], in assay [15], in [16], in assay [17] and in assay [18] was > 100 µM throughout. The TGI in assay [19] was > 100 µM.
Turning to `COc1cc(OC)cc(OCc2ccc3nc(-c4ccccc4)c(Cl)nc3c2)c1`, the TGI in [1] was 28.3 µM; in assay [2], > 100 µM; in [3], > 100 µM; in [4], > 100 µM; in assay [5] it was 66.4 µM; in assay [6], > 100 µM. Further, the TGI in assay [7] is > 100 µM; in assay [8], 32.7 µM; in assay [9], > 100 µM; in assay [10], 20.3 µM; in [11], > 100 µM; in [12], > 100 µM. Further, the TGI was 95.9 µM in assay [13]; > 100 µM in assay [14]; 67.8 µM in [15]; 69.9 µM in assay [16]; 37.4 µM in assay [17]; > 100 µM in assay [18]. Further, the TGI in assay [19] is > 100 µM.
In the case of `S=C1Cc2c(-c3ccc(Cl)cc3)cc(-c3ccccc3)nc2-c2ccccc2N1`, the TGI in assay [1] was 21.8 µM; in assay [2] it was 25.5 µM; in assay [3], 27.1 µM; in assay [4] it was > 100 µM; in assay [5], 26.7 µM; in assay [6], 16.3 µM. Further, the TGI in assay [7] was 50.9 µM; in assay [8] it was 35.9 µM; in [9], 27.2 µM; in assay [10], 40.2 µM; in assay [11], 18 µM; in assay [12] it was 92.9 µM. Also, the TGI in assay [13] is 8.04 µM; in assay [14], > 100 µM; in assay [15] it was 34.1 µM; in [16], > 100 µM; in assay [17] it was 17.4 µM; in assay [18], > 100 µM. Moreover, the TGI in assay [19] was 41.3 µM.
As to `C#CCn1ncc2c(SC)ncnc21`, the TGI in assay [1], in assay [2], in assay [3], in [4], in assay [5] and in [6] was > 100 µM each time. For the same compound, the TGI in [7], in assay [8], in assay [9], in [10], in assay [11] and in assay [12] was > 100 µM in each case. In addition, the TGI is > 100 µM in assay [13]; > 100 µM in [14]; > 100 µM in assay [15]; > 100 µM in assay [16]; 97.8 µM in assay [17]; > 100 µM in [18]. Besides, the TGI in assay [19] was > 100 µM.
Consider `COC(=O)CC1C(COC(C)=O)OC(n2cc(C)c(=O)[nH]c2=O)C1OC(C)=O` (centres undefined), for which the TGI in [1], in assay [2], in assay [3], in [4], in assay [5] and in assay [6] was > 100 µM in each case. For the same compound, the TGI in assay [7], in assay [8], in assay [9], in [10], in assay [11] and in assay [12] was > 100 µM throughout. Further, the TGI in assay [13], in assay [14], in assay [15], in assay [16], in assay [17] and in assay [18] was > 100 µM in each case. In assay [19], the TGI was > 100 µM.
Regarding `O=Cc1c2ccccc2n2ccc3c4ccccc4[nH]c3c12`, the TGI in assay [1], in assay [2], in [3], in assay [4], in assay [5] and in assay [6] was > 10 µM in each case. The TGI in assay [7], in assay [8], in assay [9], in assay [10], in assay [11] and in assay [12] was > 10 µM throughout. Moreover, the TGI in [13], in [14], in [15], in assay [16], in assay [17] and in assay [18] was > 10 µM throughout. Moreover, in [19], the TGI was > 10 µM.
`Cc1ccc(Cc2n[nH]c(=O)n2/N=C\CC/C=N\n2c(Cc3ccc(C)cc3)n[nH]c2=O)cc1`: the TGI in [1] is 41 µM; in assay [2], > 100 µM; in [3] it was > 100 µM; in assay [4] it was > 100 µM; in assay [5], 76.1 µM; in assay [6], 45.5 µM. Moreover, the TGI in assay [7] is > 100 µM; in assay [8] it was > 100 µM; in [9], 84.6 µM; in assay [10], > 100 µM; in assay [11] it was > 100 µM; in [12] it was > 100 µM. Also, the TGI in assay [13] is 39.9 µM; in assay [14], > 100 µM; in [15], > 100 µM; in assay [16], > 100 µM; in assay [17] it was 34.7 µM; in assay [18], > 100 µM. Besides, the TGI in [19] was > 100 µM.
As to `CC(=O)NNc1nc(C)c(C(/C=C/c2ccc([N+](=O)[O-])cc2)=N/N)s1`, the TGI in [1], in [2], in assay [3], in [4], in [5] and in assay [6] was > 100 µM throughout. The TGI in assay [7], in assay [8], in assay [9], in assay [10], in assay [11] and in assay [12] was > 100 µM each time. Besides, the TGI in assay [13] was > 100 µM; in assay [14], 89.2 µM; in assay [15], > 100 µM; in assay [16], > 100 µM; in [17], > 100 µM; in assay [18], > 100 µM. Further, in assay [19], the TGI was > 100 µM.
In the case of `COC(=O)[C@H](Cc1ccccc1)NC(=O)N1CCCN(C(=O)N[C@@H](Cc2ccccc2)C(=O)OC)CCCN(C(=O)N[C@@H](Cc2ccccc2)C(=O)OC)CCC1`, the TGI in assay [1] amounted to 32.1 µM; in assay [2], 76.4 µM; in assay [3] it was 31.3 µM; in assay [4], 63.4 µM; in [5], 30.3 µM; in [6], 44.6 µM. Also, the TGI was > 100 µM in assay [7]; 34.1 µM in assay [8]; 53.3 µM in assay [9]; 35.2 µM in assay [10]; 54.7 µM in assay [11]; 33 µM in assay [12]. In addition, the TGI is 47.2 µM in assay [13]; > 100 µM in [14]; 37.6 µM in assay [15]; 35.9 µM in assay [16]; 30.6 µM in [17]; 34.8 µM in [18]. In assay [19], this compound gave a TGI of 30.2 µM.
For `CC(=O)N1CN2C(=O)CCC2c2ccccc21` (centres undefined), the TGI in assay [1], in assay [2], in [3], in assay [4], in assay [5] and in assay [6] was > 100 µM each time. For the same compound, the TGI in assay [7], in [8], in [9], in [10], in assay [11] and in [12] was > 100 µM throughout. In addition, the TGI in [13], in assay [14], in assay [15], in assay [16], in assay [17] and in assay [18] was > 100 µM throughout. Further, the TGI in [19] is > 100 µM.
For `C1=Nc2ccc(cc2)N=Cc2ccc(cc2)OCc2cccc(n2)COc2ccc1cc2`, the TGI in assay [1], in assay [2], in assay [3], in assay [4], in [5] and in assay [6] was > 100 µM throughout. Also, the TGI in [7], in assay [8], in [9], in assay [10], in assay [11] and in assay [12] was > 100 µM in each case. For the same compound, the TGI in assay [13], in assay [14], in assay [15], in assay [16], in assay [17] and in [18] was > 100 µM in each case. In assay [19], the TGI was > 100 µM.
